Values joined by “and” are separate entries in the source; they are usually repeats but may differ in a detail not shown here. Equal values may be shown once.

These results are taken from PMC9203742 (Nature Communications, 2022).

For assay [1], the system named is mGlu1 construct not given. Put plainly: Fura-2 Ca2+ imaging in HEK293 cells, source data Suppl Fig1, right group (c18-c26); construct not given. In kind it is cell-based, rat. To be noted: single-cell values, cells #15-#20; right group of third block. An excerpt: (§1) Supplement 41467_2022_30828_MOESM6_ESM.zip/Ojima et al_source data_Suppl Fig.xlsx, sheet "Suppl Fig1" | column: Glu; NiCl2; CuCl2; ZnCl2; CdCl2; Na2PdCl2; Pd(bpy)

Assay [2] concerns the target T1, mGlu1 A59H/G266H mutant (Rattus norvegicus, UniProt P23385, A59H/G266H).
T1 construct: expressed in transfected cells; host or cells: HEK293
Nature of the assay: Fura-2 Ca2+ imaging in HEK293 cells expressing mGlu1 A59H/G266H. In kind it is cell-based. Particulars: single-cell values.

For assay [3], the system named is HEK293 cells, vector control. Nature of the assay: Fura-2 Ca2+ imaging in HEK293 cells transfected with control vector (Vec). In kind it is cell-based. Particulars: single-cell values #1-#20.
Assay [4] has as its system mGlu1 construct not given. Put plainly: Fura-2 Ca2+ imaging in HEK293 cells, source data Suppl Fig1, left group (c0-c8); construct not given. Particulars: single-cell values, cells #15-#20; left group of third block. In kind it is cell-based, rat.
Text: as §1

The target of another assay is T2, WT mGlu1 (Rattus norvegicus, UniProt P23385). Note: test concentration or dose not given here.
T2 construct: expressed in transfected cells; host or cells: HEK293
In kind it is cell-based.

In assay [5] the target is T3, mGlu1 A59H/A265H mutant (Rattus norvegicus, UniProt P23385, A265H/A59H).
T3 construct: expressed in transfected cells; host or cells: HEK293
Put plainly: Fura-2 Ca2+ imaging in HEK293 cells expressing mGlu1 A59H/A265H. In kind it is cell-based. To be noted: single-cell values.

Assay [6] addresses T1, mGlu1 A59H/G266H mutant. Put plainly: Fura-2 Ca2+ imaging in HEK293 cells expressing mGlu1 A59H/G266H. In kind it is cell-based. To be noted: Fig.1e.
The test system of assay [7] is HEK293 cells, vector control. Put plainly: Fura-2 Ca2+ imaging in HEK293 cells transfected with control vector (Vec). Particulars: Fig.1e. In kind it is cell-based. The text has this:
Supplement 41467_2022_30828_MOESM6_ESM.zip/Ojima et al_source data_Main Figure.xlsx, sheet "Fig.1e" | column: Vec

In another assay the target is T4, mGlu1 K61H/N264H mutant (Rattus norvegicus, UniProt P23385, K61H/N264H).
T4 construct: expressed in transfected cells; host or cells: HEK293
Put plainly: Fura-2 Ca2+ imaging in HEK293 cells expressing mGlu1 K61H/N264H. In kind it is cell-based.

Assay [8] deals with T3, mGlu1 A59H/A265H mutant. Nature of the assay: Fura-2 Ca2+ imaging in HEK293 cells expressing mGlu1 A59H/A265H. In kind it is cell-based. Particulars: Fig.1e.
A further assay has as its target T5, mGlu1 P58H/N264H mutant (Rattus norvegicus, UniProt P23385, N264H/P58H).
T5 construct: expressed in transfected cells; host or cells: HEK293
Nature of the assay: Fura-2 Ca2+ imaging in HEK293 cells expressing mGlu1 P58H/N264H. In kind it is cell-based.

Assay [9] deals with mGlu1 construct not given. Nature of the assay: Fura-2 Ca2+ imaging in HEK293 cells, source data Suppl Fig1, middle group (c9-c17); construct not given. In kind it is cell-based, rat. Particulars: single-cell values, cells #15-#20; middle group of third block.
Text: as §1

In a further assay the target is T6, mGlu1 E60H/N264H mutant (Rattus norvegicus, UniProt P23385, E60H/N264H).
T6 construct: expressed in transfected cells; host or cells: HEK293
Nature of the assay: Fura-2 Ca2+ imaging in HEK293 cells expressing mGlu1 E60H/N264H. In kind it is cell-based.

The target in the next assay is T7, mGlu1 A59H/N264H mutant (Rattus norvegicus, UniProt P23385, A59H/N264H).
T7 construct: expressed in transfected cells; host or cells: HEK293
Nature of the assay: Fura-2 Ca2+ imaging in HEK293 cells expressing mGlu1 A59H/N264H. In kind it is cell-based.

The target of the next assay is T8, mGlu1 P57H/N264H mutant (Rattus norvegicus, UniProt P23385, N264H/P57H).
T8 construct: expressed in transfected cells; host or cells: HEK293
Nature of the assay: Fura-2 Ca2+ imaging in HEK293 cells expressing mGlu1 P57H/N264H. In kind it is cell-based.
Throughout, for Ca2+ response (delta ratio), A59H/G266H: test concentration or dose not given here.
Throughout, for Ca2+ response of individual cells (source data Suppl Fig1), Vec: test concentration or dose not given here.

T8 sequence (P23385 19-1199 P57H/N264H): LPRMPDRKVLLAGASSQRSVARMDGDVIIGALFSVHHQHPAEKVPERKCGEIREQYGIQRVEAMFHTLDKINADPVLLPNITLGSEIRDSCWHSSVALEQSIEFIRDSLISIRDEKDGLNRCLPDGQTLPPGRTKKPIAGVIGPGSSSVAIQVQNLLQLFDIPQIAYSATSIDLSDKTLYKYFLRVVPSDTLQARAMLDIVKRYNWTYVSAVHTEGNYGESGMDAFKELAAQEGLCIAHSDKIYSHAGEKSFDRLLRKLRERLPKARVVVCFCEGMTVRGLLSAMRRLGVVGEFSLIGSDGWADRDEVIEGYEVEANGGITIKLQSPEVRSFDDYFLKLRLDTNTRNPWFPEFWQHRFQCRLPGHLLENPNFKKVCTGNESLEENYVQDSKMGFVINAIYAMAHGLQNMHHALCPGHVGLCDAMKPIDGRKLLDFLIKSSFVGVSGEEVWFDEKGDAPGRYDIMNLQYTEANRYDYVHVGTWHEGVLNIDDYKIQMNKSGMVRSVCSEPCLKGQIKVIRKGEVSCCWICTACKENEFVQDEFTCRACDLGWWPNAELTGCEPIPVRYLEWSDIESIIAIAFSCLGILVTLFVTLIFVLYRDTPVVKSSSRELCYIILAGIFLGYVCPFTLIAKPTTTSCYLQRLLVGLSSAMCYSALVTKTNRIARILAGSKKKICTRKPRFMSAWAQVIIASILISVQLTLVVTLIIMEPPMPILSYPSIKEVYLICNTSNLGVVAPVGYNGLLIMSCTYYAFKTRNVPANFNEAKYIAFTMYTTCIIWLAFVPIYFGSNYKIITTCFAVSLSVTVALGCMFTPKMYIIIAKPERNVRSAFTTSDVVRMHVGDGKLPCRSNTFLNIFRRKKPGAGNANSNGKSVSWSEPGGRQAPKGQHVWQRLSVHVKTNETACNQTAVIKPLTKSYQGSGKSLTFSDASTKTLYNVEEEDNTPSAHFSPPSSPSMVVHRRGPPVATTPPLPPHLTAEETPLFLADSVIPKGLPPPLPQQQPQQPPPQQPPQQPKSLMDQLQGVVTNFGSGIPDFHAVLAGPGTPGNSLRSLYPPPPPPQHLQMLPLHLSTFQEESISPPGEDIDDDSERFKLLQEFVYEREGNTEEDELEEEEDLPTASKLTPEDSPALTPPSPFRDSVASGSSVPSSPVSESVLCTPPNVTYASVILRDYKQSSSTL
T1 sequence (P23385 19-1199 A59H/G266H): as the sequence (P23385 19-1199 P57H/N264H) above, with H39P, A41H, H246N, G248H counted along it
T3 sequence (P23385 19-1199 A59H/A265H): as the sequence (P23385 19-1199 P57H/N264H) above, with H39P, A41H, H246N, A247H counted along it
T5 sequence (P23385 19-1199 P58H/N264H): as the sequence (P23385 19-1199 P57H/N264H) above, with H39P, P40H counted along it
T4 sequence (P23385 19-1199 K61H/N264H): as the sequence (P23385 19-1199 P57H/N264H) above, with H39P, K43H counted along it
T6 sequence (P23385 19-1199 E60H/N264H): as the sequence (P23385 19-1199 P57H/N264H) above, with H39P, E42H counted along it
T7 sequence (P23385 19-1199 A59H/N264H): as the sequence (P23385 19-1199 P57H/N264H) above, with H39P, A41H counted along it
T2 sequence (P23385 19-1199): as the sequence (P23385 19-1199 P57H/N264H) above, with H39P, H246N counted along it

For the molecule `[Cl-].[Cl-].[Zn+2]` [ZnCl2], the “Ca2+ response of individual cells (source data, sheet Suppl Fig1)” value in assay [1] was -0.02524 and -0.001377 and -0.01992 and 0.004231 and -0.03185 and -0.008431; in [4] it was -0.009 and -0.001631 and -0.01245 and -0.02388 and -0.01824 and -0.008531; in assay [9], -0.0199 and 0.02527 and 0.05882 and -0.05132 and 0.1351 and 0.01718. Further, the “Ca2+ response of individual cells (source data Suppl Fig1), A59H/G266H” value at mGlu1 A59H/G266H mutant [2] is -0.005723 and -0.01571 and -0.007938 and -0.01115 and -0.002308 and 0.008723 and -0.07331 and -0.0327 and -0.004923 and 0.01074 and -0.0004923 and -0.02615 and -0.03942 and 0.04141. Moreover, the “Ca2+ response of individual cells (source data Suppl Fig1), Vec” value in assay [3] is -0.02208 and -0.02062 and -0.01588 and -0.01264 and 0.0006769 and -0.01746 and -1.54E-05 and -0.004454 and -0.02104 and -0.008908 and -0.02662 and 0.006915 and 0.02477 and 0.001469 and -0.01177 and -0.03347 and -0.02945 and -0.01742 and 0.01306 and -0.02001. The “Ca2+ response (delta ratio), WT” value on WT mGlu1 (Fig.1e) came out at 0.00492. Moreover, the “Ca2+ response of individual cells (source data Suppl Fig1), WT” value at WT mGlu1 (single-cell values #1-#20, WT) is -0.0004923 and -0.006346 and -0.007608 and 0.01052 and -0.003585 and 0.007785 and 0.05315 and -0.005223 and -0.002885 and -0.002892 and -0.004792 and -0.003569 and 0.002877 and -0.04019 and -0.002708 and -0.06293 and -0.001754 and 0.176 and -0.006623 and -0.0003538. For the same molecule, at mGlu1 A59H/A265H mutant [5], the “Ca2+ response of individual cells (source data Suppl Fig1), A59H/A265H” value is 0.02775 and 0.01526 and -0.01 and -0.0009538 and -0.04594 and 0.01742 and 0.01817 and 0.02166 and -0.009515 and -0.04688 and 0.04091 and -0.03576 and 0.04018 and -0.001815. Further, at mGlu1 A59H/G266H mutant [6], the “Ca2+ response (delta ratio), A59H/G266H” value is listed as -0.01208. Further, the “Ca2+ response (delta ratio), Vec” value in assay [7] is given as -0.01075. Further, on mGlu1 K61H/N264H mutant (Fig.1e), the “Ca2+ response (delta ratio), K61H/N264H” value was 0.01018. Further, the “Ca2+ response of individual cells (source data Suppl Fig1), K61H/N264H” value on mGlu1 K61H/N264H mutant (single-cell values, K61H/N264H) was 0.0106 and 0.02204 and -0.0158 and -0.01138 and -0.0001308 and -0.01253 and -0.01344 and 0.3114 and -0.05129 and -0.02739 and -0.01424 and -0.005346 and 0.09999 and -0.01502. The “Ca2+ response (delta ratio), A59H/A265H” value at mGlu1 A59H/A265H mutant [8] came to 0.009782. On mGlu1 P58H/N264H mutant (Fig.1e), the “Ca2+ response (delta ratio), P58H/N264H” value was -0.00161. Further, the “Ca2+ response of individual cells (source data Suppl Fig1), P58H/N264H” value at mGlu1 P58H/N264H mutant (single-cell values #1-#20, P58H/N264H) is -0.01858 and -0.04214 and -0.01035 and -0.0081 and -0.006638 and 0.08488 and -0.007315 and -0.007238 and -0.01048 and -0.008431 and -0.001785 and 0.004277 and -0.0127 and -0.01994 and 0.003692 and 0.002931 and 0.009408 and 0.02135 and 0.0149 and -0.01995. Besides, on mGlu1 E60H/N264H mutant (Fig.1e), the “Ca2+ response (delta ratio), E60H/N264H” value is -0.009416. For the same molecule, on mGlu1 E60H/N264H mutant (single-cell values #1-#20, E60H/N264H), the “Ca2+ response of individual cells (source data Suppl Fig1), E60H/N264H” value was -0.005892 and -0.03255 and -0.003646 and -0.02008 and -0.003615 and 0.05645 and 0.08788 and -0.01442 and -0.01449 and -0.04369 and -0.008223 and -0.02082 and -0.01922 and -0.01408 and -0.01929 and -0.02112 and -0.02071 and -0.02984 and -0.03302 and -0.007923. Moreover, the “Ca2+ response (delta ratio), A59H/N264H” value at mGlu1 A59H/N264H mutant (Fig.1e) came to 0.00725. Also, the “Ca2+ response of individual cells (source data Suppl Fig1), A59H/N264H” value on mGlu1 A59H/N264H mutant (single-cell values #1-#20, A59H/N264H) is -0.01136 and 0.3757 and -0.01768 and -0.004631 and 0.0006077 and -0.008377 and -0.02044 and 0.005169 and -0.005323 and -0.01275 and -0.1876 and -0.01388 and 0.06164 and -0.009792 and -0.01495 and -0.03905 and -8.46E-05 and 0.03053 and 0.01748 and -0.0002154. Besides, the “Ca2+ response (delta ratio), P57H/N264H” value at mGlu1 P57H/N264H mutant (Fig.1e) was -0.002972. Besides, at mGlu1 P57H/N264H mutant (single-cell values #1-#20, P57H/N264H), the “Ca2+ response of individual cells (source data Suppl Fig1), P57H/N264H” value is -0.0004538 and -0.005931 and -0.01735 and 0.02302 and 0.0025 and -0.02347 and -0.004954 and -0.01065 (2×) and 0.01802 and -0.01439 and 0.007646 and -0.01182 and 0.0001154 and -0.0004462 and -0.009846 and 0.01085 and 0.0122 and -0.009315 and -0.01449.
